According to patent US10047087B2, “Substituted pyrazolo[1,5-A] pyridine as tropomyosin receptor kinase (TrK) inhibitors” (Dr. Reddy's Laboratories Ltd., priority 2011, dated 2018):
Read-outs that look alike come from different tables or passages of the source.

How the values were obtained:
TrkA kinase = molecular target: T1, TrkA kinase (Homo sapiens, UniProt P04629); experiment: In vitro TrkA inhibitory activity using TR-FRET assay; type: biochemical; settings: 5 ng TrkA, 500 μM ATP
T1 construct: purchased Upstate, USA
T1 sequence (P04629 33-796): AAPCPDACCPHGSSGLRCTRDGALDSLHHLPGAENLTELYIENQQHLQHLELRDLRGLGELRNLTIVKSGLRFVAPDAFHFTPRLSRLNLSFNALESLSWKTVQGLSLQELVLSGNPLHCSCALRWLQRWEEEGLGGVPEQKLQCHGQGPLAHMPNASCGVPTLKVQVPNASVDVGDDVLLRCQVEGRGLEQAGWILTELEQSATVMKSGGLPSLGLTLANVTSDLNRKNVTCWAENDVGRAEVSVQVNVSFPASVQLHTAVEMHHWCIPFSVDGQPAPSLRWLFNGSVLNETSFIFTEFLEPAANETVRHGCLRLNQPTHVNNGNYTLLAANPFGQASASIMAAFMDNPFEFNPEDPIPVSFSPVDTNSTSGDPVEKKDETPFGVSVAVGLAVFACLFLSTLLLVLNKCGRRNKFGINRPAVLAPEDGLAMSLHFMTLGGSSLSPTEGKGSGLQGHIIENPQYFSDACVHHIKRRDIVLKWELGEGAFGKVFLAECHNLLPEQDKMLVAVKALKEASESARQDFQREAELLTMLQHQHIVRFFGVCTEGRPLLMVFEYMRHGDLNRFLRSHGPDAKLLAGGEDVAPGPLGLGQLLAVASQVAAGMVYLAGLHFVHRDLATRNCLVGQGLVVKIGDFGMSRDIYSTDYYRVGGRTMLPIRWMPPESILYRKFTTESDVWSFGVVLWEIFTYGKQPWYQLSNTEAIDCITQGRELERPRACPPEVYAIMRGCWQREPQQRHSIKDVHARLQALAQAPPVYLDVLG
Method in brief: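 Kinase (5 ng) was preincubated with compound for 30 min at 20-35° C before adding 40 nM ULight poly GT and 500 μM ATP; stopped with EDTA after 30 min. Eu-anti-phosphotyrosine antibody (0.5 nM) was read at 615/665 nm with 1% DMSO final. Compounds showing >25% inhibition at 1 μM went to sigmoidal dose-response IC50 fitting.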

[1] = Metabolic stability using Human Liver Microsomes (HLM); type: in vitro ADME; settings: pooled human liver microsomes, compound 1 μM, 0.3 mg/ml microsomal protein, 1 mM NADPH
Experimental: Stability Protocol: Metabolic Stability Using Rat Liver Microsomes (RLM) and Human Liver Microsomes (HLM).
This assay was performed using pooled male rat liver microsomes (In-house prepared as per SOP), Pooled Human liver microsomes (XENOTECH; Batch No— H0630-1110189)). The 100 μl reaction contains the compounds at 1 μM, 0.3 mg/ml microsomal protein and both the co-factors (1 mM NADPH) in buffer and the mixture was incubated at different time points (0, 15, 30, 45, 60, & 90 minutes). The reaction was stopped by the addition of equal volume of acetonitrile containing internal standard (Telmesartin). The precipitated protein was removed by centrifugation and the supernatant were analyzed LC/MS-MS method. The percent parent compound remaining was quantified by analysis using following formula (% parent compound remaining=(peak area at Time x/peak area at T0)×100. The intrinsic clearance was calculated using the following formula. CLint,app: (0.693/in vitro t½)(incubation volume/mg of microsomal protein)(45 mg microsomal protein/gram of liver)(20^a g of liver/kg body weight) • a: 20 and 45 g of liver/kg of body weight were used for human and rat, respectively (Lu C et al., DMD, 2006). Bio-analysis: It was performed in Multiple Reaction Monitoring mode (negative mode) using Applied Biosystems API 4000 coupled to Agilent Technologies 1100 series HPLC on a reverse phase column (Zorbax Eclipse XDB C18, 50×4.6 mm, 5 μm). Celecoxib was used as internal standard both in in-vitro and in-vivo experiments. Mobile phase used 0.05% […] water and acetonitrile (10:90) with a flow rate of 0.6 ml/minute. The injection volume was kept as 10 μl.

[2] = both bounds given in nm, read-out: TrkA inhibitory activity in-vitro IC50
[3] = read-out: TrkA inhibition in-vitro IC50

Compound	IC50 (TrkA kinase; [2]) [nM]	half-life at 1 μM [1] [h]	IC50 (TrkA kinase; [3]) [nM]
CC(C)(C)S(=O)(=O)NC(=O)c1cnn2ccc(N3CCCC3c3cc(F)cc4c3OCCO4)cc12 (single isomer, unassigned) [Example 50, N-(tert-butylsulfonyl)-5-(2-(7-fluoro-2,3-dihydrobenzo [b][1,4]dioxin-5-yl)pyrrolidin-1-yl)pyrazolo[1,5-a]pyridine-3-carboxamide]	100 to 500	> 1.33	
CC(C)(C)S(=O)(=O)NC(=O)c1cnn2ccc(N3C[C@@H](F)C[C@@H]3c3cc(F)ccc3F)cc12 (single isomer, unassigned) [Example 52]		> 1.33	≤ 50
O=C(NS(=O)(=O)c1ccc(F)cc1)c1cnn2ccc(N3CCC[C@@H]3c3cc(F)ccc3F)cc12 [Example 1, (R)-5-(2-(2,5-difluorophenyl)pyrrolidin-1-yl)-N-((4-fluorophenyl)sulfonyl)pyrazolo[1,5-a]pyridine-3-carboxamide]	100 to 500	> 1.33	
CC(C)(C)S(=O)(=O)NC(=O)c1cnn2ccc(N3CCC[C@@H]3c3cc(F)ccc3F)cc12 [Example 2, (R)-N-(tert-butylsulfonyl)-5-(2-(2,5-difluorophenyl)pyrrolidin-1-yl) pyrazolo[1,5-a]pyridine-3-carboxamide]		> 1.33	≤ 50
CCS(=O)(=O)NC(=O)c1cnn2ccc(N3CCC[C@@H]3c3cc(F)ccc3F)cc12 [Example 3, (R)-5-(2-(2,5-difluorophenyl)pyrrolidin-1-yl)-N-(ethylsulfonyl)pyrazolo[1,5-a]pyridine-3-carboxamide]	100 to 500	> 1.33	
N#Cc1cccc(S(=O)(=O)NC(=O)c2cnn3ccc(N4CCC[C@@H]4c4cc(F)ccc4F)cc23)c1 [Example 4, (R)-N-((3-cyanophenyl)sulfonyl)-5-(2-(2,5-difluorophenyl)pyrrolidin-1-yl)pyrazolo[1,5-a]pyridine-3-carboxamide]		> 1.33	50 to 100
CCCS(=O)(=O)NC(=O)c1cnn2ccc(N3CCC[C@@H]3c3cc(F)ccc3F)cc12 [Example 10, (R)-5-(2-(2,5-difluorophenyl)pyrrolidin-1-yl)-N-(propylsulfonyl)pyrazolo[1,5-a] pyridine-3-carboxamide]		> 1.33	≤ 50
CC1OCCC1S(=O)(=O)NC(=O)c1cnn2ccc(N3CCC[C@@H]3c3cc(F)ccc3F)cc12 (stereo partly drawn) [Example 24, 5-((R)-2-(2,5-difluorophenyl)pyrrolidin-1-yl)-N-((2-methyltetrahydrofuran-3-yl)sulfonyl)pyrazolo[1,5-a] pyridine-3-carboxamide]	100 to 500	> 1.33	
O=C(NS(=O)(=O)c1ccc(N2CC[C@H](O)C2)nc1)c1cnn2ccc(N3CCC[C@@H]3c3cc(F)ccc3F)cc12 [Example 25, 5-((R)-2-(2,5-difluorophenyl)pyrrolidin-1-yl)-N-((6-((S)-3-hydroxypyrrolidin-1-yl)pyridin-3-yl)sulfonyl)pyrazolo[1,5-a] pyridine-3-carboxamide]		> 1.33	≤ 50
COc1ccc(S(=O)(=O)NC(=O)c2cnn3ccc(N4CCC[C@@H]4c4cc(F)ccc4F)cc23)cn1 [Example 26, (R)-5-(2-(2,5-difluorophenyl)pyrrolidin-1-yl)-N-((6-methoxypyridin-3-yl)sulfonyl) pyrazolo[1,5-a]pyridine-3-carboxamide]		> 1.33	50 to 100
O=C(NS(=O)(=O)c1ccc2c(c1)OCO2)c1cnn2ccc(N3CCC[C@@H]3c3cc(F)ccc3F)cc12 [Example 35, (R)-N-(benzo[d][1,3]dioxol-5-ylsulfonyl)-5-(2-(2,5-difluorophenyl)pyrrolidin-1-yl)pyrazolo[1,5-a]pyridine-3-carboxamide]		> 1.33	50 to 100
O=C(NS(=O)(=O)Cc1ccccc1)c1cnn2ccc(N3CCC[C@@H]3c3cc(F)ccc3F)cc12 [Example 40, (R)-N-(benzylsulfonyl)-5-(2-(2,5-difluorophenyl)pyrrolidin-1-yl)pyrazolo[1,5-a]pyridine-3-carboxamide]		> 1.33	≤ 50
CC(C)(C)S(=O)(=O)NC(=O)c1cnn2ccc(N3CCC[C@@H]3c3cc(F)cc(OC(F)F)c3)cc12 [Example 43, (R)-N-(tert-butylsulfonyl)-5-(2-(3-(difluoromethoxy)-5-fluorophenyl)pyrrolidin-1-yl) pyrazolo[1,5-a]pyridine-3-carboxamide]	100 to 500	> 1.33	
CCOc1ccc(F)cc1[C@H]1CCCN1c1ccn2ncc(C(=O)NS(=O)(=O)C(C)(C)C)c2c1 [Example 45, (R)-N-(tert-butylsulfonyl)-5-(2-(2-ethoxy-5-fluorophenyl)pyrrolidin-1-yl)pyrazolo[1,5-a]pyridine-3-carboxamide]		> 1.33	50 to 100
CC(C)(C)S(=O)(=O)NC(=O)c1cnn2ccc(N3CCC[C@@H]3c3cc(F)ccc3OCC3CC3)cc12 [Example 46, (R)-N-(tert-butylsulfonyl)-5-(2-(2-(cyclopropylmethoxy)-5-fluorophenyl)pyrrolidin-1-yl)pyrazolo[1,5-a]pyridine-3-carboxamide]		> 1.33	50 to 100
CC(C)(C)S(=O)(=O)NC(=O)c1cnn2ccc(N3CCC[C@@H]3c3cc(F)ccc3OCCF)cc12 [Example 57, (R)-N-(tert-butylsulfonyl)-5-(2-(5-fluoro-2-(2-fluoroethoxy)phenyl)pyrrolidin-1-yl) pyrazolo[1,5-a]pyridine-3-carboxamide]		> 1.33	≤ 50
CC(C)(C)S(=O)(=O)NC(=O)c1cnn2ccc(N3CCC[C@@H]3c3cc(F)ccc3OC3CCOC3)cc12 (stereo partly drawn) [Example 59, N-(tert-butylsulfonyl)-5-((2R)-2-(5-fluoro-2-((tetrahydrofuran-3-yl)oxy)phenyl)pyrrolidin-1-yl)pyrazolo[1,5-a]pyridine-3-carboxamide]		> 1.33	≤ 50
COCCOc1ccc(F)cc1[C@H]1CCCN1c1ccn2ncc(C(=O)NS(=O)(=O)C(C)(C)C)c2c1 [Example 65, (R)-N-(tert-butylsulfonyl)-5-(2-(5-fluoro-2-(2-methoxyethoxy)phenyl)pyrrolidin-1-yl)pyrazolo [1,5-a]pyridine-3-carboxamide]		> 1.33	≤ 50
CC1(S(=O)(=O)NC(=O)c2cnn3ccc(N4C[C@@H](F)C[C@@H]4c4cc(F)ccc4F)cc23)CC1 [Example 74, 5-((2R,4S)-2-(2,5-difluorophenyl)-4-fluoropyrrolidin-1-yl)-N-((1-methylcyclopropyl)sulfonyl)pyrazolo[1,5-a]pyridine-3-carboxamide]		> 1.33	≤ 50
CC(C)S(=O)(=O)NC(=O)c1cnn2ccc(N3C[C@@H](F)C[C@@H]3c3cccc(F)c3)c(F)c12 [Example 122, 4-fluoro-5-((2R,4S)-4-fluoro-2-(3-fluorophenyl)pyrrolidin-1-yl)-N-(isopropylsulfonyl) pyrazolo[1,5-a]pyridine-3-carboxamide]		> 1.33	
CC(C)(C)S(=O)(=O)NC(=O)c1cnn2ccc(N3CCC[C@@H]3c3cc(F)ccc3OC3CCOCC3)cc12 [Example 124, (R)-N-(tert-butylsulfonyl)-5-(2-(5-fluoro-2-((tetrahydro-2H-pyran-4-yl)oxy)phenyl)pyrrolidin-1-yl)pyrazolo[1,5-a]pyridine-3-carboxamide]		> 1.33	
